From US20130158112A1, “COMPOSITIONS AND METHODS FOR INHIBITING BETA AMYLOID SECRETION” (priority 2011, published 2013)
Entries after “also recorded” stand apart in the source; their conditions may differ. Read-outs that look alike come from different tables or passages of the source.

What was measured:
Aβ secretion [1] = test: Secreted Aβ in cultured primary neurons from APP/PS1 transgenic mice; format: cell-based, mouse; conditions: 24 h incubation
Method: H4βAPP695 wt cells, a human […] cell line stably transfected with a wtβAPP695 expression vector construct under the control of a CMV promoter (kindly provided by Dr. Chris Eckman from Mayo Clinic, Florida) were cultured as previously described. Twenty-four hours before drug treatment, the media was replaced with serum-free media. Cells were then incubated with drugs (dissolved in DMSO) or vehicle for 24 h for collection of conditioned media and cell lysates. For the PKC inhibitors experiment, three inhibitors were treated 30 min prior to drug challenge. Primary cortical neurons were prepared from embryonic day 18 APP and presenilin 1 (APPswe, PSEN1dE9) transgenic mice on the C57BL/6 genetic background (Jackson Laboratories, strain no. 5864) as previously described. THLE-3 human hepatoma cells (from ATCC) were plated in 24-well plates that were precoated with 10 μg/mL bovine serum albumin, 10 μg/mL fibronectin, and 30 μg/mL bovine type I collagen. […] Transepithelial resistance was measured in each well and found to be >160 Ω/cm^2. […] Four hours later, the basal chamber media was harvested and used to measure lucifer yellow fluorescence to confirm monolayer integrity as well as for treatment of H4βAPP695 wt cells for 24 h prior to analysis of secreted Aβ, which was compared to the effect of direct addition of 10 μM of the corresponding drug.

APP [2] = test: Western blot of APP processing products (sAPPα, sAPPβ, holoAPP, αCTF) in H4βAPP695 wt cells; format: cell-based, human; conditions: 10 μM, 24 h
Method: The alternate processing of holoAPP by either the β-secretase (a precursor to Aβ production) or α-secretase (which clips in the middle of the Aβ region) is shown in FIG. 2A. Compound 1 induced decrease in total Aβ secretion may be due to its effect on APP processing or due to decreased production of its precursor APP. To probe its mechanism, H4βAPP695 wt cells were treated with 10 μM 1 for 24 h. Using Western blot assays, we measured secreted APPα (sAPPα) and APPβ (sAPPβ) in the conditioned media, and full-length holo-APP and the 83 residue long α-C-terminal fragment (α-CTF) in cell lysate. […] Thus, 1 appears to decrease Aβ secretion by activating the α-secretase pathway, a favorable pathway as the large secreted sAPPα protein is reported to have neurotrophic and neuroprotective activities.

α-secretase [3] = test: α-Secretase activity assay in lysates of treated H4βAPP695 wt cells; format: cell-based, human
Method: (§1) H4βAPP695 wt were treated with vehicle or 1 for 24 h, washed with ice cold PBS, and lysed in extraction buffer provided with the α-secretase assay kit (R&D Systems) for 10 min on ice and centrifuged at 10000 g for 1 min to remove nuclei. Protein content of the supernatant was determined by the BCA assay, and 50 μg of lysate protein were added to wells of a 96-well assay plate and the volume was adjusted to 100 μL using the lysis buffer. 100 μL of reaction buffer and 10 μL of the fluorogenic substrate were added, and the plates were incubated at 37° C. in the dark with gentle agitation for 2 h. Activity was detected in a fluorescence plate reader using an excitation of 355 nm and an emission of 510 nm after subtraction of fluorescence in the absence of cell lysate.
(§2) We measured the activity of α-secretase using a fluorogenic peptide substrate in lysates of H4βAPP695 wt cells. […] However, addition of compound 1 directly to the cell lysates, rather than to the live cells, had no effect on α-secretase activity (data not shown), implying an indirect cellular activation of this pathway rather than direct activation of the α-secretase protease by compound 1.

α-secretase [4] = test: α-Secretase activity, compound added directly to cell lysates; format: biochemical, human; conditions: added to lysates rather than live cells
Method: as §1, §2

ADAM9 = test: Western blot of pro and active ADAM9 in H4βAPP695 wt cells; format: cell-based, human; conditions: 24 h
Method: (§3) Several members of the ADAM (a disintegrin and metalloproteinase) family, ADAM9, ADAM10, and ADAM17, have been reported to have α-secretase activity. […] Using antibodies specific for these three ADAM proteases, we assessed the levels of the pro and active forms in cells cultured with increasing concentrations of compound 1. […] At the 10 μM dose of compound 1, we observed a 31% increase in the ratio of active/pro ADAM9 (p<0.05), N=3 each control and compound 1) and a 42% increase in the ratio active/pro ADAM10 (p<0.05). Although the direct target for compound 1 has not been identified, it seems likely that its mechanism is via the increased ADAM 9 and ADAM10 processing into active α-secretase, which cleaves APP in a manner that precludes Aβ production.

ADAM10 = test: Western blot of pro and active ADAM10 in H4βAPP695 wt cells; format: cell-based, human; conditions: 24 h
Method: as §3

ADAM17 = test: Western blot of pro and active ADAM17 in H4βAPP695 wt cells; format: cell-based, human; conditions: increasing concentrations, 24 h
Method: as §3

Aβ secretion [5] = test: PKC inhibitors experiment on Aβ secretion; format: cell-based, human
Method: H4βAPP695 wt cells, a human […] cell line stably transfected with a wtβAPP695 expression vector construct under the control of a CMV promoter (kindly provided by Dr. Chris Eckman from Mayo Clinic, Florida) were cultured as previously described. Twenty-four hours before drug treatment, the media was replaced with serum-free media. Cells were then incubated with drugs (dissolved in DMSO) or vehicle for 24 h for collection of conditioned media and cell lysates. For the PKC inhibitors experiment, three inhibitors were treated 30 min prior to drug challenge. Primary cortical neurons were prepared from embryonic day 18 APP and presenilin 1 (APPswe, PSEN1dE9) transgenic mice on the C57BL/6 genetic background (Jackson Laboratories, strain no. 5864) as previously described. THLE-3 human hepatoma cells (from ATCC) were plated in 24-well plates that were precoated with 10 μg/mL bovine serum albumin, 10 μg/mL fibronectin, and 30 μg/mL bovine type I collagen. The cells were grown in BEGM media (Clonetics) until confluent and treated with drugs at 20 μM for 24 h. This conditioned media was harvested, diluted 1:1 in serum-free medium, and incubated with H4βAPP695 wt cells for 24 h prior to analysis of secreted Aβ, which was compared to the effect of 10 μM drug treatments without prior incubation with the THLE-3 cells. Caco-2 cells (ATCC) were plated in 12-well plates with Transwell inserts (Costar) at 70000 cells per well and grown for 21 days. The media volume of the apical and basal chambers was 0.5 and 1.5 mL, respectively. Transepithelial resistance was measured in each well and found to be >160 Ω/cm^2. Drugs at 40 μM and 20 μg/mL of lucifer yellow were added in serum-free medium to the apical chamber. Four hours later, the basal chamber media was harvested and used to measure lucifer yellow fluorescence to confirm monolayer integrity as well as for treatment of H4βAPP695 wt cells for 24 h prior to analysis of secreted Aβ, which was compared to the effect of direct addition of 10 μM of the corresponding drug.
The tumor promoter phorbal myristate acetate is an activator of protein kinase C (PKC) that has been reported to activate α-secretase activity. Thus, we wanted to determine if protein kinase C inhibitors could block the effect of compound 1 on Aβ secretion.

[6] = test system: THLE-3 human hepatoma cells; test: Drug activity persistence after incubation with THLE-3 hepatoma cells; format: in vitro ADME; conditions: Homo sapiens, THLE3, 24 h
APP [7] = test: Western blot of APP processing products (sAPPα, sAPPβ, holoAPP, αCTF) in H4βAPP695 wt cells; format: cell-based, human
H4βAPP695 wt cells = test: Cytotoxicity by total cell protein content (BCA) of H4βAPP695 wt cells; conditions: 10 μM

Compound: O=C(NCCSCc1cccc(Cl)c1)c1c(Cl)cccc1Cl [Compound 1]
- secreted Aβ levels in primary neurons (Aβ secretion [1]): effective in reducing secreted Aβ levels
- cellular full length (holo) APP level (APP [2]): without altering holoAPP levels
- increase of cellular α-CTF levels (APP [2]): over 2 fold
- increase of sAPPα levels (APP [2]): over 3 fold
- sAPPα level (APP [2]): caused an increase; also recorded: increased
- sAPPβ level (APP [2]): without altering
- αCTF level (APP [2]): caused an increase; also recorded: increased
- α-secretase activity after treatment of cells (α-secretase [3]): induced
- increase in α-secretase activity (α-secretase [3]; cells pretreated with 10 μM for 24 h): 20%
- α-secretase activity on direct addition to cell lysates (α-secretase [4]): no effect
- increase in the ratio of active/pro ADAM9 (ADAM9; 10 μM): 31%
- active ADAM9 / processing of ADAM9 (ADAM9; increasing doses): dose dependent increase; also recorded: promotes cellular processing
- increase in the ratio active/pro ADAM10 (ADAM10; 10 μM): 42%
- active ADAM10 / processing of ADAM10 (ADAM10; increasing doses): dose dependent increase; also recorded: promotes cellular processing
- active form of ADAM17 (ADAM17): did not observe much effect
- effect on Aβ secretion in presence of PKC inhibitors (Aβ secretion [5]): not blocked by PKC inhibitors
- inhibition at 10 µM ([6]; 10 μM on H4 cells, without preincubation with hepatoma cells, read-out: hepatoma incubation No total Aβ (% decrease)): 69.4%
- inhibition at 10 µM ([6]; 20 μM preincubated 24 h with THLE-3 hepatoma cells, diluted to 10 μM on H4 cells, read-out: hepatoma incubation Yes total Aβ (% decrease)): 34.6%
- time at which α-CTF increase is first observed (APP [7]; 10 μM): 2 h
- time to maximal α-CTF levels (APP [7]; 10 μM): ≤ 8 h
- increase in cellular α-CTF in presence of cyclohexamide (APP [7]; 4 h treatment): not blocked
- cytotoxicity, measured by total cell protein content (H4βAPP695 wt cells): did not have significant cytotoxicity
